From patent publication US20070275954A1 (published 2007) come the findings set out here.

`CNC1=Nc2ncccc2C(c2cnc[nH]2)=NC1c1cccs1` (stereo not shown) registered a melting point of 280 to 290 °C.

Take `Cn1ccnc1C1=NC(c2cccs2)C(N2CCC2)=Nc2ncccc21` (stereo not shown): the melting point lay within 215 to 217 °C.

For the compound `CNC1=Nc2ncccc2C(c2ccc[nH]2)=NC1c1cccs1` (stereo not shown), the melting point lay in the range of 165 to 170 °C.

In turn, `CNC1=Nc2ncccc2C(c2cn[nH]c2)=NC1c1cccs1` (stereo not shown) yielded a melting point of 187 to 194 °C.

`CNC1=Nc2ncccc2C(c2cc[nH]n2)=NC1c1cccs1` (stereo not shown) came in with a melting point of 269 to 272 °C.

The compound `CNC1=Nc2ncccc2C(c2ccoc2)=NC1c1cccs1` (stereo not shown) registered a melting point of 110 to 114 °C.

Turning to `c1csc(C2N=C(c3cc[nH]c3)c3cccnc3N=C2N2CCC2)c1` (stereo not shown), the melting point fell in the range of 168 to 172 °C.

As to `CNC1=Nc2ncccc2C(c2ccsc2)=NC1c1cccs1` (stereo not shown), the melting point was in the range of 85 to 88 °C.

Regarding `c1csc(C2N=C(c3ccsc3)c3cccnc3N=C2N2CCC2)c1` (stereo not shown), the melting point fell in the range of 90 to 95 °C.

`c1csc(C2N=C(c3ccsc3)c3cccnc3N=C2NC2CC2)c1` (stereo not shown) yielded a melting point of 90 to 96 °C.
